These results are taken from paper PMC4367188 (ACS Chemical Neuroscience, 2015).

What all share (experiment): Lead Profiling Screen radioligand binding
Test [1] addresses Adrenergic β1 (Homo sapiens, UniProt P08588).
Test [2] has as its target Cannabinoid CB1 (Homo sapiens, UniProt P21554).
The target of test [3] is Endothelin ETB (Homo sapiens, UniProt P24530).
The target in test [4] is Sertonin (5-Hydroxytrptamine) 5-HT3 (Homo sapiens, UniProt P46098).
Test [5] relates to Glutamate, NMDA, Glycine. The note with it: 10 μM ML352.
Test [6] deals with Glutamate, NMDA, Phancyclidine. Particulars: 10 μM ML352.
For test [7], the target named is Transporter, Norepinephrine (NET) (Homo sapiens, UniProt P23975).
Transporter, Norepinephrine (NET), sequence (P23975 whole entry): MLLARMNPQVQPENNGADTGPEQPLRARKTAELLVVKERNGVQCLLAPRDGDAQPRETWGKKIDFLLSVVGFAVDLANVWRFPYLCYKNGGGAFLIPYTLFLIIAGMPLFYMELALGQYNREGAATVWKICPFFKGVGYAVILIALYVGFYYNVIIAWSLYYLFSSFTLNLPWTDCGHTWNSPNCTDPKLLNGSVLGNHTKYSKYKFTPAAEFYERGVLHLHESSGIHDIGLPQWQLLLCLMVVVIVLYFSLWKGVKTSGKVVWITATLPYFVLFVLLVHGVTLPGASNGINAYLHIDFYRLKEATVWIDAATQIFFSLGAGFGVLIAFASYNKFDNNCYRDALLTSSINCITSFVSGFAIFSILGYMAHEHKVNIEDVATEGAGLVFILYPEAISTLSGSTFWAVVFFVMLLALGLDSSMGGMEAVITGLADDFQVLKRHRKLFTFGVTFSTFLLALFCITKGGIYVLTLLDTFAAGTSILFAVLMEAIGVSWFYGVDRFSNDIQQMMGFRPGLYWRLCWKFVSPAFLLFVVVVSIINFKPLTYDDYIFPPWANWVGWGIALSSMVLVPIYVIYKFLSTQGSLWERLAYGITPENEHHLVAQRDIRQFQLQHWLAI

Endothelin ETB, sequence (P24530 27-442): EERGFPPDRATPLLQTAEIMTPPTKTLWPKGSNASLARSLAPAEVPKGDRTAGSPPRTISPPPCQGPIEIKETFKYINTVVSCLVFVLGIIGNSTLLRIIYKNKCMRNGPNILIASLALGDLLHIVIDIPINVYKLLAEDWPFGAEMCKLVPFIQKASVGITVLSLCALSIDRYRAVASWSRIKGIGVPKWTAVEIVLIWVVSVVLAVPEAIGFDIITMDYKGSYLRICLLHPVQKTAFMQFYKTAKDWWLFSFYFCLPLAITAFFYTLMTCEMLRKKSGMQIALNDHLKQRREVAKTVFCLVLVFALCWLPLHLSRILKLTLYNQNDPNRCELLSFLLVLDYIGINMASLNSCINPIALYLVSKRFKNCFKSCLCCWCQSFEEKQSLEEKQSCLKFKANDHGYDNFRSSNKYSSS
Cannabinoid CB1, sequence (P21554 whole entry): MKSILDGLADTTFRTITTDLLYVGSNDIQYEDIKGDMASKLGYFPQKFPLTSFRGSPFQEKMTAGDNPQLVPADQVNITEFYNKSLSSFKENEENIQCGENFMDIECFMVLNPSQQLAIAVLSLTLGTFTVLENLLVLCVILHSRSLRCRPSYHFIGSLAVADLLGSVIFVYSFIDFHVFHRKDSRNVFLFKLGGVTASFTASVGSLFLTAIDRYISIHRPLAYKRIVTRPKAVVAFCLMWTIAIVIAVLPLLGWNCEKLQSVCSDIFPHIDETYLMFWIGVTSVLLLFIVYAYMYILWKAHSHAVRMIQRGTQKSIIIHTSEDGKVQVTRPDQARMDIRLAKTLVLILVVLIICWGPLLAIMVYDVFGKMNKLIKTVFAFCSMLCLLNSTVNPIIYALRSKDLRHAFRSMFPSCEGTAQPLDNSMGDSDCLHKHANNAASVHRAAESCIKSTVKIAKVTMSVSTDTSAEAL
Adrenergic β1, sequence (P08588 whole entry): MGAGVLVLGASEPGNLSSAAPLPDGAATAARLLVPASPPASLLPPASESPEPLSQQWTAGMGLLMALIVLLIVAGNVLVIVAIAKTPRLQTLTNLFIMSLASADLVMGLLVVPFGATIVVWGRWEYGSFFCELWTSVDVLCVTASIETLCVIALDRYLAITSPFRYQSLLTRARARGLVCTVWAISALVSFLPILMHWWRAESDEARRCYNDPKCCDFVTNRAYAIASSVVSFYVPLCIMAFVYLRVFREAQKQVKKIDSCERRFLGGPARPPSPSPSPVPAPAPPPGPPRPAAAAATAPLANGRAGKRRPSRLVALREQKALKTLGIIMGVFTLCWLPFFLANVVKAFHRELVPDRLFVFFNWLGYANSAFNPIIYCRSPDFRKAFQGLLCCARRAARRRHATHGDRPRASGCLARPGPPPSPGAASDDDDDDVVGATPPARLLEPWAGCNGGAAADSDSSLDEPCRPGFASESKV
Sertonin (5-Hydroxytrptamine) 5-HT3, sequence (P46098 24-478): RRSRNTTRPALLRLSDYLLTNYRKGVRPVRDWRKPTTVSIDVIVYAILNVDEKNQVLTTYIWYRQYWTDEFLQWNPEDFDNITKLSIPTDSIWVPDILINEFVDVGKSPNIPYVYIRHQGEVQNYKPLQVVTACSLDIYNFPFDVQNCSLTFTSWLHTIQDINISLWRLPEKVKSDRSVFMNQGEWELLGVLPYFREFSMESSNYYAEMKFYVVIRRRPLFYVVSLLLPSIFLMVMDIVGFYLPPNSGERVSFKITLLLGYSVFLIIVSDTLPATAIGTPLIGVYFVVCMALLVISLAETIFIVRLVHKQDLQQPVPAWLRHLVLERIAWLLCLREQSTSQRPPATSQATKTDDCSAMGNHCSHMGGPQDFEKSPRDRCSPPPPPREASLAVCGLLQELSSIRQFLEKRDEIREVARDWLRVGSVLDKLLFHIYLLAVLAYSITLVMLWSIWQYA

The inhibition is the change of the read-out against control, counted positive when it falls. One may read the % inhibition as how much of the control response was suppressed. A lower % inhibition goes with a response near the control. Regarding `COc1ccc(C(=O)NCc2cc(C(C)C)no2)cc1OC1CCN(C)CC1` [ML352, N-((3-isopropylisoxazol-5-yl)methyl)-4-methoxy-3-((1-methylpiperidin-4-yl)oxy)benzamide], the inhibition at 10 µM in test [1] was 2%; in test [2] it was 4%; in test [3], -2%; in test [4] it was 2%; in test [7], 12%. Besides, the “% inhibition” value was 4% in test [5] and “–5%” in test [6].
